# Data reported in patent publication US20140113898A1, “BISARYLSULFONE AND DIALKYLARYLSULFONE COMPOUNDS AS CALCIUM CHANNEL BLOCKERS” (Zalicus Pharmaceuticals Ltd., priority 2010, published 2014).
# Where two headings read alike, the source gives them in different places.
# Legend:
# Type in all cases: cell-based
# CaV3.2 = molecular target: T1, CaV3.2 (Homo sapiens, UniProt O95180); experiment: High-throughput CaV3.2/Kir2.3 T-type FLIPR fluorescent assay; conditions: Fluo-4 FLIPR, closed or inactivated state not stated
# T1 construct: expressed in transfected cells; host or cells: unnamed doxycycline-inducible cell line
# In short: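 Doxycycline-induced cells loaded with Fluo-4, preincubated 20 min at 29°C with compound in 2 mM KCl (closed-state) or 7.6 mM KCl (inactivated-state) buffer, pH 7.4. Calcium entry triggered by 12 mM or 14.5 mM KCl respectively; fluorescence read 3 min by FLIPR, IC50 from logistic fit.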
# CaV2.2 = molecular target: T2, CaV2.2 (Homo sapiens, UniProt Q00975); experiment: High-throughput CaV2.2/Kir2.3 FLIPR fluorescent assay; conditions: Fluo-4 FLIPR, closed or inactivated state not stated, read-out: FLIPR data CaV2.2
# T2 construct: expressed in transfected cells; host or cells: unnamed doxycycline-inducible cell line
# T2 sequence (Q00975 whole entry): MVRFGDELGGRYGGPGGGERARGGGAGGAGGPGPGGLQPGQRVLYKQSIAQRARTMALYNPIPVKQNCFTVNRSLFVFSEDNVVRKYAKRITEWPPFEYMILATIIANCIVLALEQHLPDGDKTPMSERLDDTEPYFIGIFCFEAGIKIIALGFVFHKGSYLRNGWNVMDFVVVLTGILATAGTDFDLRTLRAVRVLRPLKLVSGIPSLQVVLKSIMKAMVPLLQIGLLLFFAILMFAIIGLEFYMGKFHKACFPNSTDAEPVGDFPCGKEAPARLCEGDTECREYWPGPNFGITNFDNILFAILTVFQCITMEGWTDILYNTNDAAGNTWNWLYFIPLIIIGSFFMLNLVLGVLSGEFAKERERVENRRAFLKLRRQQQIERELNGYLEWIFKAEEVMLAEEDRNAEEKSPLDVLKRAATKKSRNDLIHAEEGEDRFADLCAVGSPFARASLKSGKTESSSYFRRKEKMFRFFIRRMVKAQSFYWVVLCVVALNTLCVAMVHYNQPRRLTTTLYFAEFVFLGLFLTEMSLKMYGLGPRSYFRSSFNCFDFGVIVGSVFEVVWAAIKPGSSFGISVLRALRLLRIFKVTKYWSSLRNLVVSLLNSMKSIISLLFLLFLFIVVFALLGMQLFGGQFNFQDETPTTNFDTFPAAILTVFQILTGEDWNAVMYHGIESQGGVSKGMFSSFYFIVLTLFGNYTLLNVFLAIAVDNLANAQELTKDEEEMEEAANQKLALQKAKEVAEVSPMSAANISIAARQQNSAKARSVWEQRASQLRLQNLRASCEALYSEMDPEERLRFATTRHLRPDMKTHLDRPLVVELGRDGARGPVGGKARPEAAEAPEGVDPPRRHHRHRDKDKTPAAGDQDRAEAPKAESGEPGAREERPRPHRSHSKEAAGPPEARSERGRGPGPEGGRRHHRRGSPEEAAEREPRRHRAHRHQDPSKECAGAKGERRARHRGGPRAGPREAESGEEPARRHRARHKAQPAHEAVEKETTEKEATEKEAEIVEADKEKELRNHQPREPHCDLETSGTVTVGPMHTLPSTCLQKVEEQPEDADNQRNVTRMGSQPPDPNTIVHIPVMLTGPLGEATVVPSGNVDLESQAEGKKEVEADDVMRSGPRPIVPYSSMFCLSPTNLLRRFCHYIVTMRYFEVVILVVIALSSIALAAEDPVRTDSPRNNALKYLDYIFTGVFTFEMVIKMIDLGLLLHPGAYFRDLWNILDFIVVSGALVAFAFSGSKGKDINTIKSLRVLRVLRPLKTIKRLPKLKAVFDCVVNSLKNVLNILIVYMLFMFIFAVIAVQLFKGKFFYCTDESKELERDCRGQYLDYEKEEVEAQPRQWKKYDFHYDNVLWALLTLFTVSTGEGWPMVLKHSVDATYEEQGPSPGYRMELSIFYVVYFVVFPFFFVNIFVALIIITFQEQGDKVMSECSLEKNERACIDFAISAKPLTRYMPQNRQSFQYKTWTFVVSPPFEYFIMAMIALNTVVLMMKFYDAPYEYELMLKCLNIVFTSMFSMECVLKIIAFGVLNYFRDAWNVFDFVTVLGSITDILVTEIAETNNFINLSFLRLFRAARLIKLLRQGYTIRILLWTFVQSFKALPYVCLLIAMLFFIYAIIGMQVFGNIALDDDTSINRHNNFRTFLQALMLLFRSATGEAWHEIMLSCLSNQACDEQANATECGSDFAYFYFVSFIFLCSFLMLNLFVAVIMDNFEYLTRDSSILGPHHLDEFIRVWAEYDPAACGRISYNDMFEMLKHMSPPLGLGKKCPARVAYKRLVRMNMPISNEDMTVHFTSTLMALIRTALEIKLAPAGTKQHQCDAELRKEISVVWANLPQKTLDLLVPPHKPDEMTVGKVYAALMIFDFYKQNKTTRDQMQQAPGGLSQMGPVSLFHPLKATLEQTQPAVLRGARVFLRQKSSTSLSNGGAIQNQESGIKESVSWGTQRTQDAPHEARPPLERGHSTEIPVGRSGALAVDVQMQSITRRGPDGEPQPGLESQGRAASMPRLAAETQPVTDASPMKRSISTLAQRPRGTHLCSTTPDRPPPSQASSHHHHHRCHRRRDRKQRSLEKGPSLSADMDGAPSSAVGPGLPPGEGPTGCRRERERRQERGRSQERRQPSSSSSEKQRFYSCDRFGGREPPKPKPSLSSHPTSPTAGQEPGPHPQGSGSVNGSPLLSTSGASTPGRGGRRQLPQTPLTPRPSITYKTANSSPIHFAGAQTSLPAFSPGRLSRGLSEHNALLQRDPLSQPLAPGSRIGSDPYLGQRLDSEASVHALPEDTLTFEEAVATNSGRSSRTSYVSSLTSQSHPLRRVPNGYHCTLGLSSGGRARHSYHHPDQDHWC
# T2 sequence (P54284 whole entry partner): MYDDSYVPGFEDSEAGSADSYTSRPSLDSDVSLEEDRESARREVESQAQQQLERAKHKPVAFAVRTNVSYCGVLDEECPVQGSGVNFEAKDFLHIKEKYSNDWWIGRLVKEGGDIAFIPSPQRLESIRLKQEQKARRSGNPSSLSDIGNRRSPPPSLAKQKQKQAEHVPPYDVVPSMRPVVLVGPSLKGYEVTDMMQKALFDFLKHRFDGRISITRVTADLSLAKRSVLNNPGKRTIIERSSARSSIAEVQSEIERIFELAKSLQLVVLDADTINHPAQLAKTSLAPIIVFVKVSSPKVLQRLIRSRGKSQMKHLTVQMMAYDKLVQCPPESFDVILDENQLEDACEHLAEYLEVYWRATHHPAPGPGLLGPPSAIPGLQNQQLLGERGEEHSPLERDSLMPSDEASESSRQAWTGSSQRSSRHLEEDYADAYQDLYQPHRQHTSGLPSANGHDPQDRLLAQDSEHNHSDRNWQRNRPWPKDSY
# T2 sequence (P54289 25-946 partner limits assumed): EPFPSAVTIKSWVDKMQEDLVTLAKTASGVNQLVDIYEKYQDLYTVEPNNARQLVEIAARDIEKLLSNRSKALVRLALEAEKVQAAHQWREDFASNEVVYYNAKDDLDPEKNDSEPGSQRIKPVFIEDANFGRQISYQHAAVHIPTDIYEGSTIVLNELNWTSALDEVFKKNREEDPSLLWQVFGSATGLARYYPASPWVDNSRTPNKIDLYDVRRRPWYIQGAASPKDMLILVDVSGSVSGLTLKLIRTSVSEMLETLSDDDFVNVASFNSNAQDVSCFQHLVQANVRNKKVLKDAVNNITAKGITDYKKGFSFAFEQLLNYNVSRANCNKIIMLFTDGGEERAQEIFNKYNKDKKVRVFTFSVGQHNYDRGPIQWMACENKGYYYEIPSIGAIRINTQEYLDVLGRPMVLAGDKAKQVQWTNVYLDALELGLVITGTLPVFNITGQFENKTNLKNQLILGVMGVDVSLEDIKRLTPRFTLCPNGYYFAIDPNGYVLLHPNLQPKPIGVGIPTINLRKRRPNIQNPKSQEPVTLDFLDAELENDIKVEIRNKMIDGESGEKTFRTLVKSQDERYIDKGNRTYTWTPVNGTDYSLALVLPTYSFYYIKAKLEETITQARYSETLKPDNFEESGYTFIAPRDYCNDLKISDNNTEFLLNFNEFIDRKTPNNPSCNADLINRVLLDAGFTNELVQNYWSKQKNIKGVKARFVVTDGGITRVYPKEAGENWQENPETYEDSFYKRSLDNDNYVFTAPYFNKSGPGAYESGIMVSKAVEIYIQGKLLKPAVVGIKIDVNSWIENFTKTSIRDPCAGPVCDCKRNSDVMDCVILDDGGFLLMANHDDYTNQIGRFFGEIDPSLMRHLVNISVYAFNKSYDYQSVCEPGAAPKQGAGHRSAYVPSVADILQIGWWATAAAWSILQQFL
# T2 sequence (P54289 947-1103 partner limits assumed): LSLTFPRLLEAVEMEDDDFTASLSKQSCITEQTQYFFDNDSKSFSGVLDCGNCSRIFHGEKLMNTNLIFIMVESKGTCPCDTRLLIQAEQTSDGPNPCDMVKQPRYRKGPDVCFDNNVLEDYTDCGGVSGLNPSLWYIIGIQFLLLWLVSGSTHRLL
# In short: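 Doxycycline-induced cells moved to 29 °C on assay day and were loaded with 4.4 μM Fluo-4. They were held in 2 mM KCl (closed state) or 12.5 mM KCl (inactivated state) buffer, pH 7.4, then depolarized with 130 mM KCl. Fluorescence was read 3 min on FLIPR, and IC50 was obtained from logistic fits.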
# CaV3.1 = molecular target: T3, CaV3.1 (Homo sapiens, UniProt O43497); experiment: High-throughput CaV3.1 T-type FLIPR fluorescent assay; conditions: Fluo-4 FLIPR
# T3 construct: expressed in transfected cells; host or cells: unnamed doxycycline-inducible cell line
# In short: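 Doxycycline-induced CaV3.1 cells were loaded with Fluo-4 at 29 °C and pre-incubated with compound for 20 min at 29 °C in low-Ca2+ buffer (0.001 mM CaCl2, pH 7.2). Calcium entry was triggered by buffer containing 6 mM CaCl2, and Fluo-4 fluorescence was recorded on FLIPR for 3 min. IC50 came from logistic fits.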
Structure (SMILES),IC50 (CaV3.2; Table 4) [nM],IC50 (CaV2.2; Table 4) [nM],IC50 (CaV3.1; Table 4) [nM],IC50 (CaV3.2; Table 5) [nM],IC50 (CaV2.2; Table 5) [nM],IC50 (CaV3.1; Table 5) [nM]
"CS(=O)(=O)c1cc(C(F)(F)F)cnc1C(=O)NCc1ccc(S(=O)(=O)c2cccc(C(F)(F)F)c2)cc1 [Compound 5, 3-(methylsulfonyl)-5-(trifluoromethyl)-N-(4-((3-(trifluoromethyl)phenyl)sulfonyl)benzyl)picolinamide]",2370,470,1350,,,
"O=C(NCc1cccc(S(=O)(=O)c2cccc(C(F)(F)F)c2)c1)c1cc(F)cc(Cl)c1 [Compound 18, 3-chloro-5-fluoro-N-(3-((3-(trifluoromethyl)phenyl)sulfonyl)benzyl)benzamide]",840,220,1570,,,
"CC(C)(CCNC(=O)C(C)(C)S(=O)(=O)c1cccc(C(F)(F)F)c1)S(=O)(=O)c1cccc(C(F)(F)F)c1 [Compound 150, 2-methyl-N-(3-methyl-3-((3-(trifluoromethyl)phenyl)sulfonyl)butyl)-2-((3-(trifluoromethyl)phenyl)sulfonyl)propanamide]",,,,1020,250,1770
"CS(=O)(=O)c1cc(C(=O)NCc2cccc(S(=O)(=O)c3cccc(C(F)(F)F)c3)c2)cc(C(F)(F)F)n1 [Compound 23, 2-(methylsulfonyl)-6-(trifluoromethyl)-N-(3-((3-(trifluoromethyl)phenyl)sulfonyl)benzyl)isonicotinamide]",570,490,2050,,,
"CC(C)(CCNC(=O)[C@@H]1C[C@@H](C2CCCCC2)CN1)S(=O)(=O)c1cccc(C(F)(F)F)c1 [Compound 218, (2S,4S)-4-cyclohexyl-N-(3-methyl-3-((3-(trifluoromethyl)phenyl)sulfonyl)butyl)pyrrolidine-2-carboxamide]",,,,3210,740,5640
"O=C(NCc1ccccc1S(=O)(=O)c1cccc(C(F)(F)F)c1)c1ccc(C(F)(F)F)cn1 [Compound 39, 5-(trifluoromethyl)-N-(2-((3-(trifluoromethyl)phenyl)sulfonyl)benzyl)picolinamide]",1250,740,1040,,,
"CS(=O)(=O)c1cc(C(=O)NCc2ccccc2S(=O)(=O)c2cccc(C(F)(F)F)c2)cc(C(F)(F)F)n1 [Compound 42, 2-(methylsulfonyl)-6-(trifluoromethyl)-N-(2-((3-(trifluoromethyl)phenyl)sulfonyl)benzyl)isonicotinamide]",3240,640,2890,,,
"O=C(NCc1ccc(S(=O)(=O)c2cccc(C(F)(F)F)c2)cc1)c1ccnc(C(F)(F)F)c1 [Compound 16, 2-(trifluoromethyl)-N-(4-((3-(trifluoromethyl)phenyl)sulfonyl)benzyl)isonicotinamide]",640,940,1430,,,
"O=C(NCc1ccc(S(=O)(=O)c2cccc(C(F)(F)F)c2)cc1)c1cc(F)cc(Cl)c1 [Compound 2, 3-chloro-5-fluoro-N-(4-((3-(trifluoromethyl)phenyl)sulfonyl)benzyl)benzamide]",850,950,1500,,,
"COc1cc(C(=O)NCc2ccc(S(=O)(=O)c3cccc(C(F)(F)F)c3)cc2)cc(Cl)n1 [Compound 14, 2-chloro-6-methoxy-N-(4-((3-(trifluoromethyl)phenyl)sulfonyl)benzyl)isonicotinamide]",430,850,2380,,,
"CC(C)(CCN1CCn2nc(C(F)(F)F)cc2C1=O)S(=O)(=O)c1cccc(C(F)(F)F)c1 [Compound 187, 5-(3-methyl-3-((3-(trifluoromethyl)phenyl)sulfonyl)butyl)-2-(trifluoromethyl)-6,7-dihydropyrazolo[1,5-a]pyrazin-4(5H)-one]",,,,4310,420,5050
"Cn1nc(C(F)(F)F)cc1C(=O)NCc1cccc(S(=O)(=O)c2cccc(C(F)(F)F)c2)c1 [Compound 22, 1-methyl-3-(trifluoromethyl)-N-(3-((3-(trifluoromethyl)phenyl)sulfonyl)benzyl)-1H-pyrazole-5-carboxamide]",640,220,3010,,,
"CS(=O)(=O)c1cc(C(F)(F)F)ccc1C(=O)NCc1ccc(S(=O)(=O)c2cccc(C(F)(F)F)c2)cc1 [Compound 11, 2-(methylsulfonyl)-4-(trifluoromethyl)-N-(4-((3-(trifluoromethyl)phenyl)sulfonyl)benzyl)benzamide]",590,410,1070,,,
"O=C(NCc1ccc(S(=O)(=O)c2cccc(C(F)(F)F)c2)cc1)c1ccc(Cl)c(F)c1 [Compound 1, 4-chloro-3-fluoro-N-(4-((3-(trifluoromethyl)phenyl)sulfonyl)benzyl)benzamide]",620,760,1290,,,
"O=C(NCc1cccc(S(=O)(=O)c2cccc(C(F)(F)F)c2)c1)c1ccc(C(F)(F)F)cn1 [Compound 20, 5-(trifluoromethyl)-N-(3-((3-(trifluoromethyl)phenyl)sulfonyl)benzyl)picolinamide]",930,230,1810,,,
"O=C1c2ccc(C(F)(F)F)nc2CN1Cc1cccc(S(=O)(=O)c2cccc(C(F)(F)F)c2)c1 [Compound 57, 2-(trifluoromethyl)-6-(3-((3-(trifluoromethyl)phenyl)sulfonyl)benzyl)-6,7-dihydro-5H-pyrrolo[3,4-b]pyridin-5-one]",800,260,6130,,,
"CC(C)S(=O)(=O)c1cc(C(F)(F)F)cnc1C(=O)NCc1ccc(S(=O)(=O)c2cccc(C(F)(F)F)c2)cn1 [Compound 96, 3-(isopropylsulfonyl)-5-(trifluoromethyl)-N-((5-((3-(trifluoromethyl)phenyl)sulfonyl)pyridin-2-yl)methyl)picolinamide]",2140,640,1560,,,
"O=C(NCc1ccc(S(=O)(=O)c2cccc(C(F)(F)F)c2)cn1)c1ccc(F)c(Cl)c1 [Compound 104, 3-chloro-4-fluoro-N-((5-((3-(trifluoromethyl)phenyl)sulfonyl)pyridin-2-yl)methyl)benzamide]",880,600,1540,,,
"O=C(NCc1cccc(S(=O)(=O)c2cccc(C(F)(F)F)c2)c1)c1ccc(Cl)c(F)c1 [Compound 17, 4-chloro-3-fluoro-N-(3-((3-(trifluoromethyl)phenyl)sulfonyl)benzyl)benzamide]",940,140,1630,,,
"O=C(NCc1ccc(S(=O)(=O)c2cccc(C(F)(F)F)c2)cc1)[C@@H]1C[C@@H](C2CCCCC2)CN1 [Compound 72, (2S,4S)-4-cyclohexyl-N-(4-((3-(trifluoromethyl)phenyl)sulfonyl)benzyl)pyrrolidine-2-carboxamide]",2320,760,8900,,,
"O=C(NCc1ccc(S(=O)(=O)c2cccc(C(F)(F)F)c2)cn1)c1ccc(C(F)(F)F)nc1 [Compound 90, 6-(trifluoromethyl)-N-((5-((3-(trifluoromethyl)phenyl)sulfonyl)pyridin-2-yl)methyl)nicotinamide]",2070,610,900,,,
"CN(CCc1c[nH]c2ccc(F)cc12)C(=O)C(C)(C)S(=O)(=O)c1cccc(C(F)(F)F)c1 [Compound 135, N-(2-(5-fluoro-1H-indol-3-yl)ethyl)-N,2-dimethyl-2-((3-(trifluoromethyl)phenyl)sulfonyl)propanamide]",,,,5840,1290,7950
"Cn1nc(C(F)(F)F)cc1C(=O)NCc1cc(S(=O)(=O)c2cccc(C(F)(F)F)c2)ccn1 [Compound 109, 1-methyl-3-(trifluoromethyl)-N-((4-((3-(trifluoromethyl)phenyl)sulfonyl)pyridin-2-yl)methyl)-1H-pyrazole-5-carboxamide]",3970,820,6530,,,
"O=C(NCc1cc(S(=O)(=O)c2cccc(C(F)(F)F)c2)ccn1)[C@@H]1C[C@@H](C2CCCCC2)CN1 [Compound 118, (2S,4S)-4-cyclohexyl-N-((4-((3-(trifluoromethyl)phenyl)sulfonyl)pyridin-2-yl)methyl)pyrrolidine-2-carboxamide]",2400,760,4760,,,
"CS(=O)(=O)c1cc(C(=O)NCc2ccc(S(=O)(=O)c3cccc(C(F)(F)F)c3)cn2)cc(C(F)(F)F)n1 [Compound 94, 2-(methylsulfonyl)-6-(trifluoromethyl)-N-((5-((3-(trifluoromethyl)phenyl)sulfonyl)pyridin-2-yl)methyl)isonicotinamide]",1450,820,1630,,,
"O=C(NCc1ccc(S(=O)(=O)c2cccc(C(F)(F)F)c2)cn1)c1ccc(C(F)(F)F)cn1 [Compound 91, 5-(trifluoromethyl)-N-((5-((3-(trifluoromethyl)phenyl)sulfonyl)pyridin-2-yl)methyl)picolinamide]",1290,840,1850,,,
